Experimental data: ChEMBL document CHEMBL3872214, “Synthesis and evaluation of in vivo antioxidant, in vitro antibacterial, MRSA and antifungal activity of novel substituted isatin N-(2,3,4,6-tetra-O-acetyl-β-d-glucopyranosyl)thiosemicarbazones” (Eur J Med Chem, 2016)
≈ marks a conversion by molar mass, not a printed value.

Columns and labels:
Type in all cases: functional
Rattus norvegicus [1] = test: (§1) Antioxidant activity in CCL4-intoxicated Wistar albino rat assessed as liver cytosolic glutathione peroxidase activity per mg protein at 100 mg/kg, ip administered for 7 consecutive days after DL-alpha-tocopherol acetate treatment followed by CCL4 dosing measured after 24 hrs by H2O2 based spectrophotometric analysis (reference value: 0.28 +/- 0.01 U)
[2] = Antifungal activity against Fusarium oxysporum M42 after 72 hrs by agar dilution method
Staphylococcus aureus [3] = test: Antibacterial activity against methicillin-resistant Staphylococcus aureus 198-2 after 18 to 20 hrs by two-fold microbroth dilution method
Staphylococcus aureus [4] = test: Antibacterial activity against Staphylococcus aureus ATCC 11632 after 18 to 20 hrs by two-fold microbroth dilution method
Candida albicans = test: Antifungal activity against Candida albicans ATCC 7754 after 72 hrs by agar dilution method; conditions: ATCC 7754, 72 h
Escherichia coli = test: Antibacterial activity against Escherichia coli ATCC 25922 after 18 to 20 hrs by two-fold microbroth dilution method
Rattus norvegicus [5] = test: as §1, with “superoxide dismutase” for “glutathione peroxidase”, “xanthine” for “H2O2”, “assay” for “spectrophotometric analysis”, “5.27” for “0.28”, “0.22” for “0.01”
Bacillus subtilis = test: Antibacterial activity against Bacillus subtilis ATCC 11774 after 18 to 20 hrs by two-fold microbroth dilution method
Pseudomonas aeruginosa = test: Antibacterial activity against Pseudomonas aeruginosa […] after 18 to 20 hrs by two-fold microbroth dilution method
Klebsiella aerogenes = test: Antibacterial activity against Enterobacter aerogenes ATCC 13048 after 18 to 20 hrs by two-fold microbroth dilution method
Aspergillus niger = test: Antifungal activity against Aspergillus niger 439 after 72 hrs by agar dilution method; conditions: Aspergillus niger, 439, 72 h
Rattus norvegicus [6] = test: as §1, with “catalase” for “glutathione peroxidase”, “assay” for “spectrophotometric analysis”, “220.15” for “0.28”, “11.43” for “0.01”
Klebsiella pneumoniae = test: Antibacterial activity against Klebsiella pneumoniae ATCC 4352 after 18 to 20 hrs by two-fold microbroth dilution method
Staphylococcus aureus [7] = test: Antibacterial activity against methicillin-resistant Staphylococcus aureus 198-1 after 18 to 20 hrs by two-fold microbroth dilution method
[8] = Antifungal activity against Saccharomyces cerevisiae SH20 after 72 hrs by agar dilution method
Staphylococcus aureus [9] = test: Antibacterial activity against methicillin-resistant Staphylococcus aureus 198-3 after 18 to 20 hrs by two-fold microbroth dilution method
[10] = tested on: Staphylococcus epidermidis; test: Antibacterial activity against Staphylococcus epidermidis ATCC 12228 after 18 to 20 hrs by two-fold microbroth dilution method

Row | Compound | Activity (Rattus norvegicus [1]) [U] | MIC [2] [µM] | MIC (Staphylococcus aureus [3]) [µM] | MIC (Staphylococcus aureus [4]) [µM] | MIC (Candida albicans) [µM] | MIC (Escherichia coli) [µM] | Activity (Rattus norvegicus [5]) [U] | MIC (Bacillus subtilis) [µM] | MIC (Pseudomonas aeruginosa) [µM] | MIC (Klebsiella aerogenes) [µM] | MIC (Aspergillus niger) [µM] | Activity (Rattus norvegicus [6]) [U] | MIC (Klebsiella pneumoniae) [µM] | MIC (Staphylococcus aureus [7]) [µM] | MIC [8] [µM] | MIC (Staphylococcus aureus [9]) [µM] | MIC [10] [µM]
1 | CC(=O)OC[C@H]1O[C@@H](NC(=S)N/N=C2/C(=O)Nc3ccccc32)[C@H](OC(C)=O)[C@@H](OC(C)=O)[C@@H]1OC(C)=O | 1.77 | 100 (≈ 55.1 µg/mL) | 200 (≈ 110 µg/mL) | 200 (≈ 110 µg/mL) | 200 (≈ 110 µg/mL) | 50 (≈ 27.5 µg/mL) | 5.81 | 100 (≈ 55.1 µg/mL) | 50 (≈ 27.5 µg/mL) | 50 (≈ 27.5 µg/mL) | 100 (≈ 55.1 µg/mL) | 295.32 | 50 (≈ 27.5 µg/mL) | 200 (≈ 110 µg/mL) | 100 (≈ 55.1 µg/mL) | 200 (≈ 110 µg/mL) | 100 (≈ 55.1 µg/mL)
2 | CCCCN1C(=O)/C(=N/NC(=S)N[C@@H]2O[C@H](COC(C)=O)[C@@H](OC(C)=O)[C@H](OC(C)=O)[C@H]2OC(C)=O)c2ccccc21 | 0.93 | 100 (≈ 60.7 µg/mL) | 100 (≈ 60.7 µg/mL) | 100 (≈ 60.7 µg/mL) | 100 (≈ 60.7 µg/mL) | 12.5 (≈ 7.58 µg/mL) | 9.89 | 100 (≈ 60.7 µg/mL) | 12.5 (≈ 7.58 µg/mL) | 12.5 (≈ 7.58 µg/mL) | 100 (≈ 60.7 µg/mL) | 377.61 | 12.5 (≈ 7.58 µg/mL) | 100 (≈ 60.7 µg/mL) | 100 (≈ 60.7 µg/mL) | 100 (≈ 60.7 µg/mL) | 100 (≈ 60.7 µg/mL)
3 | CC(=O)OC[C@H]1O[C@@H](NC(=S)N/N=C2/C(=O)N(Cc3ccccc3)c3ccccc32)[C@H](OC(C)=O)[C@@H](OC(C)=O)[C@@H]1OC(C)=O | 1.69 | 100 (≈ 64.1 µg/mL) | 200 (≈ 128 µg/mL) | 200 (≈ 128 µg/mL) | 400 (≈ 256 µg/mL) | 100 (≈ 64.1 µg/mL) | 8.6 | 200 (≈ 128 µg/mL) | 100 (≈ 64.1 µg/mL) | 100 (≈ 64.1 µg/mL) | 100 (≈ 64.1 µg/mL) | 250.63 | 100 (≈ 64.1 µg/mL) | 200 (≈ 128 µg/mL) | 400 (≈ 256 µg/mL) | 200 (≈ 128 µg/mL) | 200 (≈ 128 µg/mL)
4 | CC(=O)OC[C@H]1O[C@@H](NC(=S)N/N=C2/C(=O)Nc3c2cc(Cl)cc3[N+](=O)[O-])[C@H](OC(C)=O)[C@@H](OC(C)=O)[C@@H]1OC(C)=O | 0.35 | 25 (≈ 15.7 µg/mL) | 6.25 (≈ 3.94 µg/mL) | 6.25 (≈ 3.94 µg/mL) | 6.25 (≈ 3.94 µg/mL) | 25 (≈ 15.7 µg/mL) | 10.57 | 3.12 (≈ 1.97 µg/mL) | 25 (≈ 15.7 µg/mL) | 25 (≈ 15.7 µg/mL) | 12.5 (≈ 7.87 µg/mL) | 389.53 | 25 (≈ 15.7 µg/mL) | 6.25 (≈ 3.94 µg/mL) | 25 (≈ 15.7 µg/mL) | 6.25 (≈ 3.94 µg/mL) | 6.25 (≈ 3.94 µg/mL)
5 | CC(=O)OC[C@H]1O[C@@H](NC(=S)N/N=C2/C(=O)Nc3ccc(Br)cc32)[C@H](OC(C)=O)[C@@H](OC(C)=O)[C@@H]1OC(C)=O | 0.32 | 12.5 (≈ 7.87 µg/mL) | 1.56 (≈ 0.982 µg/mL) | 6.25 (≈ 3.93 µg/mL) | 12.5 (≈ 7.87 µg/mL) | 50 (≈ 31.5 µg/mL) | 10.47 | 6.25 (≈ 3.93 µg/mL) | 50 (≈ 31.5 µg/mL) | 50 (≈ 31.5 µg/mL) | 6.25 (≈ 3.93 µg/mL) | 394.43 | 50 (≈ 31.5 µg/mL) | 1.56 (≈ 0.982 µg/mL) | 12.5 (≈ 7.87 µg/mL) | 3.12 (≈ 1.96 µg/mL) | 6.25 (≈ 3.93 µg/mL)
6 | CCN1C(=O)/C(=N/NC(=S)N[C@@H]2O[C@H](COC(C)=O)[C@@H](OC(C)=O)[C@H](OC(C)=O)[C@H]2OC(C)=O)c2ccccc21 | 0.75 | 200 (≈ 116 µg/mL) | 100 (≈ 57.9 µg/mL) | 100 (≈ 57.9 µg/mL) | 400 (≈ 231 µg/mL) | 12.5 (≈ 7.23 µg/mL) | 9.68 | 100 (≈ 57.9 µg/mL) | 12.5 (≈ 7.23 µg/mL) | 12.5 (≈ 7.23 µg/mL) | 25 (≈ 14.5 µg/mL) | 358.47 | 12.5 (≈ 7.23 µg/mL) | 100 (≈ 57.9 µg/mL) | 400 (≈ 231 µg/mL) | 100 (≈ 57.9 µg/mL) | 100 (≈ 57.9 µg/mL)
7 | CC(=O)OC[C@H]1O[C@@H](NC(=S)N/N=C2/C(=O)N(C)c3ccccc32)[C@H](OC(C)=O)[C@@H](OC(C)=O)[C@@H]1OC(C)=O | 0.67 | 200 (≈ 113 µg/mL) | 100 (≈ 56.5 µg/mL) | 100 (≈ 56.5 µg/mL) | 100 (≈ 56.5 µg/mL) | 12.5 (≈ 7.06 µg/mL) | 9.52 | 100 (≈ 56.5 µg/mL) | 25 (≈ 14.1 µg/mL) | 12.5 (≈ 7.06 µg/mL) | 25 (≈ 14.1 µg/mL) | 350 | 12.5 (≈ 7.06 µg/mL) | 100 (≈ 56.5 µg/mL) | 100 (≈ 56.5 µg/mL) | 100 (≈ 56.5 µg/mL) | 100 (≈ 56.5 µg/mL)
